The values that follow come from patent US11591336B2 (Relay Therapeutics, Inc., priority 2017, dated 2023).

Molecules are shown by their SMILES.

This test deals with SHP2 (Homo sapiens (Human), UniProt Q06124). Put plainly: SHP2 Allosteric Inhibition Assay (DiFMUP prompt fluorescence). In kind it is biochemical. The conditions noted are these: 0.25 nM SHP2 activated with 0.5 μM peptide IRS1_pY1172(dPEG8)pY1222; substrate DiFMUP 100 μM; 25° C.
Chain of SHP2 (Q06124 whole entry): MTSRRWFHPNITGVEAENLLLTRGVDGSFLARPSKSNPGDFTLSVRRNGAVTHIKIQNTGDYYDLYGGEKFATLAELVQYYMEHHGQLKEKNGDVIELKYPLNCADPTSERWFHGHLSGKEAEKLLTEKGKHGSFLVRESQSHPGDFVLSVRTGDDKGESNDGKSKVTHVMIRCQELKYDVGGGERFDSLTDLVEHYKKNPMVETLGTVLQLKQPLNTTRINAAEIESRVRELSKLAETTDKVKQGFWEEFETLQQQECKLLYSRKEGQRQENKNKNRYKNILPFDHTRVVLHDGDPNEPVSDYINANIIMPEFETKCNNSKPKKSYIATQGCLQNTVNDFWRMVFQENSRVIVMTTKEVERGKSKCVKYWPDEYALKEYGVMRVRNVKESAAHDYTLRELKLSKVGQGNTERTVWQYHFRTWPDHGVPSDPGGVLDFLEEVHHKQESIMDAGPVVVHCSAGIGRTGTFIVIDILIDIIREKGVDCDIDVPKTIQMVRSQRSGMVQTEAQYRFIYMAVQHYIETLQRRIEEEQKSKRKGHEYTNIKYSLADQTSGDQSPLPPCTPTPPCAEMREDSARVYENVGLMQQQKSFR

`CC1CCCCN1c1cnc2c(N3CCCc4ncccc43)n[nH]c2n1` (centres unmarked) [Compound 148]: the IC50 (usually the concentration that inhibits the measured activity by half) is no less than 10 µM.
Under `NC(=O)C1CCCN(c2cnc3c(N4CCCc5ncccc54)n[nH]c3n2)C1` (centres unmarked) [Compound 149] stands no less than 10 µM; under `NC[C@@H]1C[C@H]2CC[C@@H](C1)N2c1cnc2c(N3CCCc4ncccc43)n[nH]c2n1` [Compound 150], less than 1 µM.
To `c1ccc(C2CCN(c3cnc4c(N5CCCc6ncccc65)n[nH]c4n3)C2)cc1` (centres unmarked) [Compound 151] belongs no less than 10 µM; to `c1ccc(C2CCCN(c3cnc4c(N5CCCc6ncccc65)n[nH]c4n3)C2)cc1` (centres unmarked) [Compound 152], no less than 10 µM; to `CCC1(C)CCN(c2cnc3c(N4CCCc5ncccc54)n[nH]c3n2)CC1` [Compound 153], no less than 10 µM.
Under `c1cnc2c(c1)N(c1n[nH]c3nc(N4CCCCC4)cnc13)CCC2` [Compound 155] stands no less than 10 µM; under `c1cncc(COC2CCCN(c3cnc4c(N5CCCc6ncccc65)n[nH]c4n3)C2)c1` (centres unmarked) [Compound 156], no less than 10 µM.
`NC(=O)C1CCN(c2cnc3c(N4CCCc5ncccc54)n[nH]c3n2)CC1` [Compound 157] displayed an IC50 of 1 to 10 µM.
As for `NC(=O)NC1CCN(c2cnc3c(N4CCCc5ncccc54)n[nH]c3n2)CC1` [Compound 160], the IC50 is no less than 10 µM.
To `c1ccc(CC2CCCCN2c2cnc3c(N4CCCc5ncccc54)n[nH]c3n2)cc1` (centres unmarked) [Compound 161] belongs no less than 10 µM; to `c1ccc(C2CCCCN2c2cnc3c(N4CCCc5ncccc54)n[nH]c3n2)cc1` (centres unmarked) [Compound 162], no less than 10 µM.
Regarding `CC1(CN)CCN(c2cnc3c(N4CCOc5ccccc54)n[nH]c3n2)CC1` [Compound 163], the concentration for half-maximal inhibition (IC50) was less than 1 µM.
To `CC1(CN)CCN(c2cnc3c(N4CCc5c(C#N)cccc54)n[nH]c3n2)CC1` [Compound 164] belongs less than 1 µM; to `CC1CCN(c2n[nH]c3nc(N4CCC(C)(CN)CC4)cnc23)c2ccc(-c3ncn[nH]3)cc21` (centres unmarked) [Compound 165], less than 1 µM; to `CC1(CNC(=O)OCCSSCCOC(=O)NCC2(C)CCN(c3cnc4c(N5CCCc6ncccc65)n[nH]c4n3)CC2)CCN(c2cnc3c(N4CCCc5ncccc54)n[nH]c3n2)CC1` [Compound 166, disulfanediylbis(ethane-2,1-diyl) bis(((1-(3-(3,4-dihydro-1,5-naphthyridin-1(2H)-yl)-1H-pyrazolo[3,4-b]pyrazin-6-yl)-4-methylpiperidin-4-yl)methyl)carbamate)], less than 1 µM.
To `NC[C@H]1CCN(c2cnc3c(N4CCCc5ncccc54)n[nH]c3n2)[C@H](c2ccccc2)C1` [Compound 167] belongs 1 to 10 µM; to `NC[C@@H]1CCN(c2cnc3c(N4CCCc5ncccc54)n[nH]c3n2)[C@@H](c2ccccc2)C1` [Compound 168], 1 to 10 µM; to `CC1c2ccccc2CCN1c1n[nH]c2nc(N3CCC(C)(CN)CC3)cnc12` (centres unmarked) [Compound 169], less than 1 µM.
Compound `C[C@H]1c2ccccc2CN1c1n[nH]c2nc(N3CCC(C)(CN)CC3)cnc12` [Compound 170] displayed an IC50 of less than 1 µM.
Under `CC1CCN(c2n[nH]c3nc(N4CCC(CN)(CC(=O)O)CC4)cnc23)c2cccnc21` (centres unmarked) [Compound 171, 2-[4-(aminomethyl)-1-[3-(4-methyl-1,2,3,4-tetrahydro-1,5-naphthyridin-1-yl)-1H-pyrazolo[3,4-b]pyrazin-6-yl]piperidin-4-yl]acetic acid] stands 1 to 10 µM.
To `CC1(CN)CCN(c2cnc3c(N4CCCc5cc(-c6ncon6)ccc54)n[nH]c3n2)CC1` [Compound 172, (1-(3-(6-(1,2,4-oxadiazol-3-yl)-3,4-dihydroquinolin-1(2H)-yl)-1H-pyrazolo[3,4-b]pyrazin-6-yl)-4-methylpiperidin-4-yl)methanamine] belongs less than 1 µM.
Under `CC1(CN)CCN(c2cnc3c(N4CCc5c(-c6nccs6)cccc54)n[nH]c3n2)CC1` [Compound 173] stands less than 1 µM.
